Data on 18 compounds can be found in publication PMC8537746, “New Pyridone-Based Derivatives as Cannabinoid Receptor Type 2 Agonists” (International Journal of Molecular Sciences, 2021).

One series has as its target CB2. The arrangement: method as in PMID 11597467, PMID 23623258, PMID 23395112, PMID 21702498, PMID 17004710. As to conditions: Figure 1; cited from earlier work.
Series [1] has as its target T1, human cannabinoid receptor type II (CB2R) (Homo sapiens, UniProt P34972).
T1 construct: host or cells: CHO cells
Briefly: Human CB2R cAMP agonist cellular functional assay (Eurofins Cerep). Type of series: cell-based. The settings on record: for % CB2R Agonist Response: 10 µM, CHO cells expressing hCB2R, percentage relative to control (100 nM WIN55212-2), rounded mean of two assays; for pEC50: EC50, intracellular cAMP, CHO-hCB2R. As for the experimental part: Functional evaluation was carried out by Eurofins Cerep service assay: CB2 Human Cannabinoid GPCR Cell Based Agonist cAMP Assay. CHO cells stably expressing hCB2R (Eurofins Cerep) are suspended in HBSS buffer (Invitrogen) complemented with 20 mM HEPES (pH 7.4), then distributed in microplates at a density of 7.5 × 10^3 cells/well in the presence of either of the following: HBSS (basal control), the reference agonist at 100 nM (stimulated control) or various concentrations (EC50 determination), or the test compounds. Thereafter, the adenylyl cyclase activator NKH 477 is added at a final concentration of 3 μM. Following 10 min incubation at 37 °C, the cells are lysed, and the fluorescence acceptor (D2-labeled cAMP) and fluorescence donor (anti-cAMP antibody labeled with europium cryptate) are added. After 60 min at room temperature, the fluorescence transfer is measured at λex = 337 nm and λem = 620 and 665 nm using a microplate reader (Envison, Perkin Elmer). The cAMP concentration is determined by dividing the signal measured at 665 nm by that measured at 620 nm (ratio). The results are expressed as a percent of the control response to 100 nM WIN55212-2. The standard reference agonist is WIN 55212-2, which is tested in each experiment at several concentrations to generate a concentration-response curve from which its EC50 value is calculated.

The test system of another series is HepG2 cells. Briefly: Neutral red uptake cell viability assay, HepG2. As to conditions: for pIC50: Homo sapiens, HepG2, 72 h, read-out: IC50 HepG2. As for the experimental part:
(§1) Two different cell lines were used: HepG2 as a model of hepatic tissue; and HL-60 cells as a model of blood cells. Low levels of expression of CBR exists in normal liver however, several pathological conditions have shown high upregulation of hepatic CB2R [28].
(§2) Cell lines were grown in culture media supplemented with 10% fetal bovine serum (FBS), 100 U/mL of penicillin, 100 μg/mL of streptomycin and 1% of non-essential aminoacids. Cells between passage 5 to 10 were used in experiments. Dulbecco’s Modified Eagle Medium (DMEM) was used for HepG2 cells and Roswell Park Memorial Institute (RPMI) was used for HL-60 cells. […] All cellular lines used were provided by Dr. Mario Faúndez, Laboratory of Molecular Pharmacology, Faculty of Chemistry and Pharmacy, Pontificia Universidad Católica de Chile.
(§3) The effect of compounds in cell viability was determined by Neutral Red uptake assay. Cells were seeded in 100 μL of media at a density of 10^4 cells/well in 96-well microtiter plates. Solutions of compounds were previously prepared in DMSO and 1 μL of the corresponding solution was added to each well. The final volume of each well was adjusted to 200 μL. After 72 h of incubation, culture media was removed and 100 μL of 10 μg/mL neutral red solution prepared in culture media was added to each well and incubated for 3 h. Then, media was aspirated, the plate was washed three times with PBS 1X and 100 μL of neutral red distain solution (50:49:1 ethanol:water:glacial acetic acid) was added. The plate was placed for 15 min in a shaker and fluorescence was measured using Cytation 5 apparatus (Biotek, Winooski, VT, USA) at 530/645 nm excitation/emission wavelengths.

A further series concerns HL-60 cells. Briefly: Neutral red uptake cell viability assay, HL-60. As to conditions: Homo sapiens, HL-60, 72 h, read-out: IC50 HL-60. Here is the method:
as §1, §2, §3

Series [2] can be described thus: Neutral red uptake cell viability assay, HL-60. The settings on record: human. Here is the method:
as §1, §2, §3

SMILES strings stand for the structures. pEC50, pIC50, pKi: −log10 of the molar value. Bounds are passed on as bounds.

T1 sequence (P34972 whole entry): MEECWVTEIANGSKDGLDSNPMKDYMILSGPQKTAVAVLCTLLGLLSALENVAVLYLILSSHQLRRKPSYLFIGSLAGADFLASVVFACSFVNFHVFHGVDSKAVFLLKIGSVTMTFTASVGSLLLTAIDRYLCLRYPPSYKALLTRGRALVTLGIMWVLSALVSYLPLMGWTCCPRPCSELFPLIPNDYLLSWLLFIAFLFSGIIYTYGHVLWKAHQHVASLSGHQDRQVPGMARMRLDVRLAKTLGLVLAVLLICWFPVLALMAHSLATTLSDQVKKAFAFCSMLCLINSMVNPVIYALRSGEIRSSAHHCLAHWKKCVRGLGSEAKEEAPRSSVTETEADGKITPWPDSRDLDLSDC

For orientation: pKi means the Ki on a negative log10 scale, so that one unit is a factor of ten. In the case of `CCOC(=O)CC#N` [Compound 1], the pKi at CB2 is 9.70.

Turning to `N#CCC(=O)NN` [Compound 2], the pKi at CB2 is 7.85.

The melting point is the temperature of the solid-liquid transition. On to `Cc1cc(C)n(C(=O)CC#N)n1` [Compound 3], for which the melting point lay within 119 to 121 °C. The pKi on CB2 is 9.22.

Take `COc1ccc2c(=O)c(C(=O)NC3CCCCC3)cn(Cc3ccc(F)cc3)c2n1` [Compound 4]: at CB2, the pKi is 7.96.

With `O=C(NC1CCCCCC1)c1cn2c3c(cccc3c1=O)OCC2c1ccccc1` (stereo not drawn) [Compound 5], the negative-log Ki (pKi) at CB2 is 9.09.

`Cc1cc(C)n(-c2ccccc2)c(=O)c1C(=O)Nc1nc2ccccc2s1` [Compound 7a, N-(benzo[d]thiazol-2-yl)-4,6-dimethyl-2-oxo-1-phenyl-1,2-dihydropyridine-3-carboxamide] showed a melting point of 163 to 165 °C.

As usually defined, the pIC50 is the IC50 on a negative log10 scale, so that one unit is a factor of ten. `Cc1cc(C)n(-c2ccccc2)c(=O)c1C(=O)Nc1nc2ccccc2[nH]1` [Compound 7b, N-(1H-benzo[d]imidazol-2-yl)-4,6-dimethyl-2-oxo-1-phenyl-1,2-dihydropyridine-3-carboxamide] registered a melting point of 177 to 179 °C. Also, the “% CB2R Agonist Response” value in series [1] is reported as 8%. The pIC50 in the series on HepG2 cells is < 3.70. Further, the pIC50 in the series with HL-60 cells was < 4.00.

For the compound `Cc1cc(C)n(-c2ccccc2)c(=O)c1C(=O)Nc1nc2ccccc2o1` [Compound 7c, N-(benzo[d]oxazol-2-yl)-4,6-dimethyl-2-oxo-1-phenyl-1,2-dihydropyridine-3-carboxamide], the melting point lay in the range of 228 to 230 °C. Besides, in series [1], the “% CB2R Agonist Response” value was 13%.

`Cc1ccc(-n2c(C)cc(C)c(C(=O)Nc3nc4ccccc4o3)c2=O)cc1` [Compound 7d, N-(benzo[d]oxazol-2-yl)-4,6-dimethyl-2-oxo-1-(4-methylphenyl)-1,2-dihydropyridine-3-carboxamide]: the “% CB2R Agonist Response” value in series [1] is recorded as 0%.

In turn, `Cc1ccc(-n2c(C)cc(C)c(C(=O)Nc3nc4ccccc4[nH]3)c2=O)cc1` [Compound 7e, N-(1H-benzo[d]imidazol-2-yl)-4,6-dimethyl-2-oxo-1-(4-methylphenyl)-1,2-dihydropyridine-3-carboxamide] gave a melting point of 198 to 200 °C. Further, the “% CB2R Agonist Response” value in series [1] worked out at 0%.

In turn, `Cc1cc(C)n(-c2ccc(O)cc2)c(=O)c1C(=O)Nc1nc2ccccc2[nH]1` [Compound 7f, N-(1H-benzo[d]imidazol-2-yl)-1-(4-hydroxyphenyl)-4,6-dimethyl-2-oxo-1,2-dihydropyridine-3-carboxamide] returned a melting point of 176 to 178 °C. Also, the “% CB2R Agonist Response” value in series [1] came out at 13%.

The compound `Cc1cc(C)n(-c2ccccc2)c(=O)c1C(=O)NC1CCCCC1` [Compound 8a, N-cyclohexyl-4,6-dimethyl-2-oxo-1-phenyl-1,2-dihydropyridine-3-carboxamide] yielded a melting point of 139 to 140 °C. In addition, in series [1], the “% CB2R Agonist Response” value amounted to 12%.

Turning to `Cc1cc(C)n(-c2ccccc2)c(=O)c1C(=O)NC1CCCCCC1` [Compound 8b, N-cycloheptyl-4,6-dimethyl-2-oxo-1-phenyl-1,2-dihydropyridine-3-carboxamide], the melting point was in the range of 138 to 140 °C. Also, the pIC50 in the series on HepG2 cells is < 3.70. Also, in the series on HL-60 cells, the pIC50 is < 4.00.

Consider `Cc1cc(C)n(-c2ccccc2)c(=O)c1C(=O)NC12CC3CC(CC(C3)C1)C2` [Compound 8c, N-(adamantan-1-yl)-4,6-dimethyl-2-oxo-1-phenyl-1,2-dihydropyridine-3-carboxamide], for which the melting point was 164 to 165 °C. In addition, the pIC50 in the series with HepG2 cells was < 3.70. Also, the pIC50 in the series with HL-60 cells was < 4.00.

Broadly, the pEC50 is the negative decadic logarithm of the EC50, by convention in mol/L. Low readings indicate a large EC50, high ones a small EC50. A word on the viability: it is the share of living cells, or the viability signal relative to a control. `Cc1ccc(-n2c(C)cc(C)c(C(=O)NC34CC5CC(CC(C5)C3)C4)c2=O)cc1` [Compound 8d, N-(adamantan-1-yl)-4,6-dimethyl-2-oxo-1-(4-methylphenyl)-1,2-dihydropyridine-3-carboxamide] showed a melting point of 154 to 155 °C. This compound also showed a pEC50 in series [1] of 6.95. In series [1] (n = 3), this compound showed a pEC50 of 6.96. Further, the negative-log IC50 (pIC50) in the series with HepG2 cells is < 3.70. In addition, the “effect on cell viability in HepG2 cells” value in the series with HepG2 cells (concentrations as high as 200 μM, compared to control) is “did not show significant effect on cell viability”. Moreover, the viability at 72 h, 200 µM in series [2] was 10%. For the same compound, the pIC50 with HL-60 cells is < 4.00.

The compound `Cc1ccc(-n2c(C)cc(C)c(C(=O)NC3CCCCCC3)c2=O)cc1` [Compound 8e, N-cycloheptyl-4,6-dimethyl-2-oxo-(4-methylphenyl)-1,2-dihydropyridine-3-carboxamide] yielded a melting point of 238 to 240 °C. Also, in series [1], the “% CB2R Agonist Response” value is 0%.

Regarding `Cc1cc(C)n(-c2ccc(O)cc2)c(=O)c1C(=O)NC1CCCCCC1` [Compound 8f, N-cycloheptyl-1-(4-hydroxyphenyl)-4,6-dimethyl-2-oxo-1,2-dihydropyridine-3-carboxamide], the melting point is 232 to 233 °C. In addition, the “% CB2R Agonist Response” value in series [1] was 0%.

Compound `Cc1cc(C)n(-c2ccc(O)cc2)c(=O)c1C(=O)NC1CCCCC1` [Compound 8g, N-cyclohexyl-1-(4-hydroxyphenyl)-4,6-dimethyl-2-oxo-1,2-dihydropyridine-3-carboxamide] displayed a melting point of 139 to 140 °C. For the same compound, the “% CB2R Agonist Response” value in series [1] turned out to be 4%.
